Literature values as cited in patent US20080021074A1, “Pharmaceutical Compositions and Related Methods of Treatment” (QUESTCOR PHARMACEUTICALS, INC., priority 2006, published 2008).
Structures can show the parent of a compound that is named as a salt.

What was measured:
mice = conditions: single administration
CYP3A4 = conditions: primary human hepatocyte cultures, concentration-dependent
CYP2B6 = conditions: primary human hepatocyte cultures, concentration-dependent
CYP2C19 = CYP2C19 (Homo sapiens, UniProt P33261)
Sequence of CYP2C19 (P33261 whole entry): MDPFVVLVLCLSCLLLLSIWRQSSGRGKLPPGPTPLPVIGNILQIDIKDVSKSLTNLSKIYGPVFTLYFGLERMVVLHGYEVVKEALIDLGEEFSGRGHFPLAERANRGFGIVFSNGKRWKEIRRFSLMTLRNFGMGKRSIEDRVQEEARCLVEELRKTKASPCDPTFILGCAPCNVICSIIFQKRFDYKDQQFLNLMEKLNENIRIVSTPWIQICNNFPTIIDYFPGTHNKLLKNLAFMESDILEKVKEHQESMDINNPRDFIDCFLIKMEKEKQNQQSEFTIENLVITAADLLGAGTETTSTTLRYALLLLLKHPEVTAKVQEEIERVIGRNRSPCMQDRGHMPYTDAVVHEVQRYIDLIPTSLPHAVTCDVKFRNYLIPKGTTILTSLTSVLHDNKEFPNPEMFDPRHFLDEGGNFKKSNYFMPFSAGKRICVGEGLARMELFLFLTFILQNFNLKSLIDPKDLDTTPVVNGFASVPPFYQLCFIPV

monkeys = conditions: single administration
CYP1A2 [1] = conditions: primary human hepatocyte cultures, concentration-dependent
[2] = tizanidine and baclofen combined
spasticity = conditions: clinical studies
CYP1A2 [3] = target: CYP1A2 (Homo sapiens, UniProt P05177); conditions: in vitro
Sequence of CYP1A2 (Homo sapiens, UniProt P05177) (P05177 whole entry): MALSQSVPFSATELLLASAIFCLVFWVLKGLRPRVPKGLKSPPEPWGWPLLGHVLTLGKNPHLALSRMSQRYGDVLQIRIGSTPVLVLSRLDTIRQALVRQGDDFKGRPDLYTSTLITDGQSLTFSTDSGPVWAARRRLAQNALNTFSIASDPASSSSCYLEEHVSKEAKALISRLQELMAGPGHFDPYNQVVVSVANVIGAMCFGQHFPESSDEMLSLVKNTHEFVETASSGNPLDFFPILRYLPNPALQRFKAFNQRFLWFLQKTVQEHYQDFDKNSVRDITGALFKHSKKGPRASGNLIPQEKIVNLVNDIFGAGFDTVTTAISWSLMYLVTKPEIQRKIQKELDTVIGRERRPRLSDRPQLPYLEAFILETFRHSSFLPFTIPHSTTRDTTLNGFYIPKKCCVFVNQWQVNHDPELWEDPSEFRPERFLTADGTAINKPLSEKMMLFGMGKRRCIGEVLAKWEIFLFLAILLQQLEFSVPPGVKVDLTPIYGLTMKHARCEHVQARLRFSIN

SMILES: NC(=O)C[S+]([O-])C(c1ccccc1)c1ccccc1 (stereo not drawn) [Modafinil, 2-[(diphenylmethyl)sulfinyl]acetamide]
- locomotor activity (mice): increased locomotor activity
- induction of CYP3A4 (CYP3A4): slightly induce
- induction of CYP2B6 (CYP2B6): slightly induce
- inhibition of CYP2C19 (CYP2C19): reversible inhibitors
- nocturnal activity (monkeys): increased nocturnal activity
- induction of CYP1A2 (CYP1A2 [1]): slightly induce

SMILES: Clc1ccc2nsnc2c1NC1=NCCN1 [Tizanidine, 5-chloro-4-(2-imidazolin-2-ylamino)-2,1,3-benzothiodiazole hydrochloride]
- pharmacokinetic interaction [2]: without significant pharmacokinetic interaction
- antispastic effect compared with diazepam and baclofen (spasticity): as effective as other antispastic agents
- tolerability compared with diazepam and baclofen (spasticity; especially incidence of debilitating muscle weakness): more favorable tolerability profile
- metabolizing enzyme (CYP1A2 [3]): metabolized by CYP1A2

SMILES: NCC(CC(=O)O)c1ccc(Cl)cc1 (stereo not drawn) [baclofen, 4-amino-3-(4-chlorophenyl)-butanoic acid]
- pharmacokinetic interaction [2]: without significant pharmacokinetic interaction

SMILES: NC(=O)CS(=O)(=O)C(c1ccccc1)c1ccccc1 [modafinil sulfone]
- inhibition of CYP2C19 (CYP2C19): reversible inhibitors
